Experimental findings from ChEMBL document CHEMBL1201862, “PubChem BioAssay data set” (2004) are described below.

Each structure is given as a SMILES string. Active and inactive are the calls of the source.

Assay [1] concerns BJ. Put plainly: cells. In kind it is functional, cell-based. The following applies: Homo sapiens.
In assay [2] the test system is BJ. The assay is described as follows: cytotoxicity toward BJ-TERT-LT-ST fibroblasts, dose response, cell-based, RAS-independent, luminescence (AID 1935).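 Further: BJ fibroblasts immortalized with TERT plus LT and ST oncogenes.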 The following applies: Homo sapiens. Type of assay: functional.
Assay [3] is described as follows: Intein inhibitors as potential Tuberculosis drugs, a cytotoxicity screen. [Related pubchem assays (depositor defined):AID2221, AID2223, AID434968, AID435010, AID449749, AID449750, AID489010]. In kind it is functional.
The nature of assay [4]: cytotoxicity toward DRD oncogenic fibroblasts, dose response, cell-based, non-viral oncogenic, luminescence (AID 1934). Type of assay: functional. The conditions noted are these: Homo sapiens.
The target in assay [5] is T1, Replicative DNA helicase DnaB (Mycobacterium tuberculosis, UniProt P9WMR3).
T1 sequence (P9WMR3 whole entry): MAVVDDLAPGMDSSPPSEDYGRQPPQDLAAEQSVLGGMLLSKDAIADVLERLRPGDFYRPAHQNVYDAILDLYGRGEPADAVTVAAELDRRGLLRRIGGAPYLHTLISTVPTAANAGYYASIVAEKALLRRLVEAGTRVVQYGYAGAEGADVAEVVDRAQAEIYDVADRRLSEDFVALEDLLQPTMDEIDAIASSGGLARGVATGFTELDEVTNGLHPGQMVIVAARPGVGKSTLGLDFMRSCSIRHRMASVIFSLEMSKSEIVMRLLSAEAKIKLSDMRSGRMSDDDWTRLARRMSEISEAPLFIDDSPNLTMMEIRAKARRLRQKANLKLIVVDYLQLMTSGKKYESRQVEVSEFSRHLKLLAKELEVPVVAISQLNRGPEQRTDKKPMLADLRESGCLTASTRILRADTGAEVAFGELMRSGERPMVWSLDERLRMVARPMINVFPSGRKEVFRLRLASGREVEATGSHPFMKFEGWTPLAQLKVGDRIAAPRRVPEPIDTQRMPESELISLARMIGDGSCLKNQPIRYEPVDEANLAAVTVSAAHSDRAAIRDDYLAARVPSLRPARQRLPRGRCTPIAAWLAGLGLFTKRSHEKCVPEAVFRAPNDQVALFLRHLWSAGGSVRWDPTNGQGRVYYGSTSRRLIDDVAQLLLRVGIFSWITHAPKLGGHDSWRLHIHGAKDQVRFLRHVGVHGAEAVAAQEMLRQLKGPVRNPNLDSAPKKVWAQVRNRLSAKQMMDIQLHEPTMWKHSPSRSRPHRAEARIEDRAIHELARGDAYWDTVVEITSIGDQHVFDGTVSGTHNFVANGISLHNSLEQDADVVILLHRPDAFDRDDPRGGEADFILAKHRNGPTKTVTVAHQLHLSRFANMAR
Put plainly: DnaB intein splicing inhibitors, dose response, biochemical, cell-free fluorescence (AID 449749). Type of assay: functional.

The subject of assay [6] is BJ. Put plainly: cytotoxicity toward Ras-transformed BJeLR fibroblasts, dose response, cell-based, alamar blue fluorescence, cherrypicked samples (AID 2631).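 Further: confirmatory dose-response assay in RAS-dependent BJ fibroblasts engineered with TERT, LT and ST, with cytotoxicity read by fluorescence.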 The following applies: Homo sapiens. In kind it is functional.
Assay [7] in a line: microbe, parasite or virus in culture. The conditions noted are these: Mycobacterium tuberculosis. In kind it is functional.
Assay [8] concerns BJ. The assay is described as follows: cytotoxicity toward BJ-TERT fibroblasts, dose response, cell-based, RAS-independent, luminescence (AID 1933). Type of assay: functional. The following applies: Homo sapiens.
Assay [9] concerns the target T2, Heat shock factor protein 1 (Mus musculus, UniProt P38532).
T2 sequence (P38532 whole entry): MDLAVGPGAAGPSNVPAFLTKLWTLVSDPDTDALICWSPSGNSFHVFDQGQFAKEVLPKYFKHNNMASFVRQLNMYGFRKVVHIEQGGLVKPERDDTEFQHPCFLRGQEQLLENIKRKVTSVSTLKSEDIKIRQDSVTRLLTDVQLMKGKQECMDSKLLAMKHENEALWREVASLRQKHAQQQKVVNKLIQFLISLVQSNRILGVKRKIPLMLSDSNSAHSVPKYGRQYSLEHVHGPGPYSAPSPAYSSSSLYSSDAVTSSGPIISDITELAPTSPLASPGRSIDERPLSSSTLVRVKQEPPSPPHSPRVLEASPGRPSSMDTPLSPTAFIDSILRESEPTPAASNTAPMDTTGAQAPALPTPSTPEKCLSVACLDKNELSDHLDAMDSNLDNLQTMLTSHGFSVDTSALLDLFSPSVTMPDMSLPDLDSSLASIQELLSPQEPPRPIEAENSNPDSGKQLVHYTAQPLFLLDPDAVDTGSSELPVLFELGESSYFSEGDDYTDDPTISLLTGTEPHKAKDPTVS
The assay is described as follows: inhibition of MG132-induced HSE-luciferase signal, confirmation, cell-based, NIH3T3, luminescence, dose retest (AID 2382).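 Further: NIH3T3 fibroblasts with HSF1-driven luciferase reporter stressed by proteasome inhibitor MG132; luminescence from HSF1-driven luciferase expression after 8 hours of MG132 stress.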 In kind it is functional.

Another assay concerns the target T3, Protein RecA (Mycobacterium tuberculosis, UniProt P9WHJ3).
T3 sequence (P9WHJ3 whole entry): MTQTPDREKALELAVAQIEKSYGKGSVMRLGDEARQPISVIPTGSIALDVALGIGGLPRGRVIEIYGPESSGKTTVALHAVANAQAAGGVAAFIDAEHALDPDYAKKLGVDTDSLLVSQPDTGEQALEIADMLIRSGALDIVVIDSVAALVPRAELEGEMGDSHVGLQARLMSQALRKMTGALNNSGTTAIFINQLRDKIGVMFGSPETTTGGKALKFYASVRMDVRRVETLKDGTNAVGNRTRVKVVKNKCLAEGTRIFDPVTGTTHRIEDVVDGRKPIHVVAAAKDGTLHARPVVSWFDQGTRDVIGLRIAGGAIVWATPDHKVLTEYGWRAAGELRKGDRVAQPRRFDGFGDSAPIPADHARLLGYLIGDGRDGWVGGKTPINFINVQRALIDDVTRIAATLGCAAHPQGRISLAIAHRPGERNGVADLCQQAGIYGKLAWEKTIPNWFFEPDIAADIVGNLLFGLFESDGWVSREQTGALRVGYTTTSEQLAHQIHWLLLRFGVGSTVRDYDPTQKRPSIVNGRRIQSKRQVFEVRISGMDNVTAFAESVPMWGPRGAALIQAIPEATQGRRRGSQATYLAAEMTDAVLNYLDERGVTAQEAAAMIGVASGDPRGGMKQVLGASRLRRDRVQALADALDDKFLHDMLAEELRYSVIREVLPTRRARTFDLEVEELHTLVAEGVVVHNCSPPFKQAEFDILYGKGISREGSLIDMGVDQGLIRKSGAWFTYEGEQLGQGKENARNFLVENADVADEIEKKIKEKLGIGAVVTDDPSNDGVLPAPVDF
Put plainly: Fluorescence Cell-Free Homogeneous Dose Retest to Identify Inhibitors of RecA-Intein Splicing Activity. [Related pubchem assays (depositor defined):AID2097, AID2223, AID489010, AID492950]. In kind it is functional.

Another assay addresses Mu-type opioid receptor (Homo sapiens, UniProt P35372). The assay is described as follows: SAR Analysis of Agonists of the MOR Receptor using an Image-Based Assay - Set 3. [Related pubchem assays (depositor defined):AID1777, AID1785, AID1786, AID1966, AID2133, AID2136, AID2284, AID2285, AID2352]. Type of assay: functional.
In assay [10] the target is T4, Kappa-type opioid receptor (Homo sapiens, UniProt P41145). The assay is described as follows: SAR analysis of small molecule agonists of the kappa opioid receptor via a luminescent beta-arrestin assay - Set 3. [Related pubchem assays (depositor defined):AID1777, AID1785, AID1786, AID1966, AID2133, AID2136, AID2284, AID2500]. In kind it is functional.
Assay [11] deals with T4, Kappa-type opioid receptor. The assay is described as follows: KOR agonist analogs, arrestin-GFP redistribution, SAR follow-up, imaging, image-based, set 3 (AID 488833). In kind it is functional.
Assay [12] concerns the target Delta-type opioid receptor (Homo sapiens, UniProt P41143). The assay is described as follows: SAR Analysis of Agonists of the DOR Receptor using an Image-Based Assay - Set 3. [Related pubchem assays (depositor defined):AID1777, AID1786]. Type of assay: functional.
In assay [13] the target is T5, Cannabinoid receptor 2 (Homo sapiens, UniProt P34972). The assay is described as follows: SAR analysis of antagonists of the Cannabinoid Receptor 2 using an Image-Based Assay - Set 2. [Related pubchem assays (depositor defined):AID1961, AID1965]. In kind it is functional.
The target of assay [14] is T6, Cannabinoid receptor 1 (Homo sapiens, UniProt P21554). The assay is described as follows: SAR analysis of antagonists of the Cannabinoid Receptor 1 using an Image-Based Assay - Set 3. [Related pubchem assays (depositor defined):AID1961, AID1965]. In kind it is functional.
Assay [15] deals with T5, Cannabinoid receptor 2. Put plainly: SAR analysis of agonists of the Cannabinoid Receptor 2 using an Image-Based Assay - Set 2. [Related pubchem assays (depositor defined):AID1961, AID1965]. Type of assay: functional.
For assay [16], the target named is T6, Cannabinoid receptor 1. The assay is described as follows: SAR analysis of agonists of the Cannabinoid Receptor 1 using an Image-Based Assay - Set 3. [Related pubchem assays (depositor defined):AID1961, AID1965]. In kind it is functional.
Assay [17] deals with T7, G-protein coupled receptor 35 (Homo sapiens, UniProt Q9HC97). The assay is described as follows: SAR analysis of Antagonists of the GPR35 Receptor using an Image-Based Assay - Set 4. [Related pubchem assays (depositor defined):[…]]. In kind it is functional.
The target in assay [18] is G-protein coupled receptor 55 (Homo sapiens, UniProt Q9Y2T6). Put plainly: SAR analysis of selective Agonists of GPR55 using an Image-Based Assay - Set 2. [Related pubchem assays (depositor defined):AID1961, AID1965]. Type of assay: functional.
The target of assay [19] is T7, G-protein coupled receptor 35. Put plainly: SAR analysis of Agonists of the GPR35 Receptor using an Image-Based Assay - Set 3. [Related pubchem assays (depositor defined):AID1961, AID1965]. Type of assay: functional.
The target of assay [20] is T8, Runt-related transcription factor 1/Core-binding factor subunit beta (Homo sapiens, UniProt Q01196+Q13951). The assay is described as follows: inhibitors of RUNX1 Runt–CBFb-SMMHC binding, biochemical, TR-FRET (AID 1438). In kind it is protein assay.
For assay [21], the target named is T8, Runt-related transcription factor 1/Core-binding factor subunit beta. The assay is described as follows: inhibitors of RUNX1 Runt–CBFb-SMMHC binding, primary screen, biochemical, FRET, Cerulean-Runt, Venus-CBFb-SMMHC, uHTS (AID 1434).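 Further: partner is the CBFb-SMMHC leukemia fusion protein rather than wild-type CBFb.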 In kind it is protein assay.
Assay [22] addresses T9, Sphingosine 1-phosphate receptor 4 (Homo sapiens, UniProt O95977).
T9 sequence (O95977 whole entry): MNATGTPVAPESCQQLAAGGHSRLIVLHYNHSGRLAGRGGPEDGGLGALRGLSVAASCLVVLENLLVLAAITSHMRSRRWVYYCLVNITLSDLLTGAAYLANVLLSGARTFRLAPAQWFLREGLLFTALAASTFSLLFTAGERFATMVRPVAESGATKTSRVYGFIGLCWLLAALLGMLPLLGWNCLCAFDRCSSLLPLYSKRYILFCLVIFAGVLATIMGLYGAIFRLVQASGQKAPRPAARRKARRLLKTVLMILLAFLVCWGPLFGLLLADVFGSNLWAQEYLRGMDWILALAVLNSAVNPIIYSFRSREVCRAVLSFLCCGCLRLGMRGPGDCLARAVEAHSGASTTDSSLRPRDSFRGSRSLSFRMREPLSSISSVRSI
The assay is described as follows: Late-stage fluorescence dose response cell-based assay to identify agonists of the Sphingosine 1-Phosphate Receptor 4 (S1P4): purchased compounds EC50. [Related pubchem assays (depositor defined):AID1509, AID1523, AID1563, AID1686, AID1701, AID1801]. Type of assay: functional.

T8 sequence (Q01196 whole entry, the tested form may be a part): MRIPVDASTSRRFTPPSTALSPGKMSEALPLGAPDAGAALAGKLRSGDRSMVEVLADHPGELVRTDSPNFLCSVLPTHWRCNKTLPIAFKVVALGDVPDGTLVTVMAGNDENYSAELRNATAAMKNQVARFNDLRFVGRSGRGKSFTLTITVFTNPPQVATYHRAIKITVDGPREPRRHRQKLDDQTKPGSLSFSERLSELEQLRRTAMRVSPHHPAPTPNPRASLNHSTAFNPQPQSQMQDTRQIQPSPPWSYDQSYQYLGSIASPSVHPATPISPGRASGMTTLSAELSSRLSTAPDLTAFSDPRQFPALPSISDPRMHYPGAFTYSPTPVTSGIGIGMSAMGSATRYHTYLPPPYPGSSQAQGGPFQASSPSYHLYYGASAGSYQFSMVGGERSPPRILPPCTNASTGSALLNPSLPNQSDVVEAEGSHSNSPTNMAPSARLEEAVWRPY
T8 sequence (Q13951 whole entry, the tested form may be a part): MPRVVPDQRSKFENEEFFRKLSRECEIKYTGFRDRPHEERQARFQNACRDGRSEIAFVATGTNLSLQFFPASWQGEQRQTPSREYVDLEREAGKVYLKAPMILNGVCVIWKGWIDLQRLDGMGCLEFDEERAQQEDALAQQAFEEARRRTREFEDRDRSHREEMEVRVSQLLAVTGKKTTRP
T7 sequence (Q9HC97 whole entry): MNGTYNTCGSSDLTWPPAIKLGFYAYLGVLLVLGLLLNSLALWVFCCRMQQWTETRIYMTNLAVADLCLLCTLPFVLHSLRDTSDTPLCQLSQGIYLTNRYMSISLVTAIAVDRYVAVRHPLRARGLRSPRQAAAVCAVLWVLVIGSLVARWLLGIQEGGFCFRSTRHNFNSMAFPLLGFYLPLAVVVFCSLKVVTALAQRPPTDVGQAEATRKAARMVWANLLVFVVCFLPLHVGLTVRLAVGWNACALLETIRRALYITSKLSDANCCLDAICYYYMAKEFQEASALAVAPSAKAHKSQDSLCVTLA
T5 sequence (P34972 whole entry): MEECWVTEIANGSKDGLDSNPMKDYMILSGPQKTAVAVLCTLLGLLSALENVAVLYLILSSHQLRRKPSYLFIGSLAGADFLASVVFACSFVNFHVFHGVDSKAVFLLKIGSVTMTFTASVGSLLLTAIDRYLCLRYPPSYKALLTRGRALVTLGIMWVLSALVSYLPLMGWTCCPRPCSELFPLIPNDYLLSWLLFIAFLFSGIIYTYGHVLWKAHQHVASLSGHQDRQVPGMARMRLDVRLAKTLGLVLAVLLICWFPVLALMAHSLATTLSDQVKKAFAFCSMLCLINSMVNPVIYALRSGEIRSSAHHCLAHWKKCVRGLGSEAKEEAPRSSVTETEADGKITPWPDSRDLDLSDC
T4 sequence (P41145 whole entry): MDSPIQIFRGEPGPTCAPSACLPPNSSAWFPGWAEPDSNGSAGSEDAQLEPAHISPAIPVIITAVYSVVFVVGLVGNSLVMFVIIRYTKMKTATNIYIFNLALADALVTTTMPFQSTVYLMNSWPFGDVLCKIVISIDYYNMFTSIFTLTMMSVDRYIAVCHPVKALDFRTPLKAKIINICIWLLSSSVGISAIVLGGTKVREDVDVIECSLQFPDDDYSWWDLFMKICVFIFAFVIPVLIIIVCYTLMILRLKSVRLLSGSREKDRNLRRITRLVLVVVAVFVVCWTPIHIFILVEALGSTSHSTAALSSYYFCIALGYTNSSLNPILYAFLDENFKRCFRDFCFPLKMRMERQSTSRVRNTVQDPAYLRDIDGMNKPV
T6 sequence (P21554 whole entry): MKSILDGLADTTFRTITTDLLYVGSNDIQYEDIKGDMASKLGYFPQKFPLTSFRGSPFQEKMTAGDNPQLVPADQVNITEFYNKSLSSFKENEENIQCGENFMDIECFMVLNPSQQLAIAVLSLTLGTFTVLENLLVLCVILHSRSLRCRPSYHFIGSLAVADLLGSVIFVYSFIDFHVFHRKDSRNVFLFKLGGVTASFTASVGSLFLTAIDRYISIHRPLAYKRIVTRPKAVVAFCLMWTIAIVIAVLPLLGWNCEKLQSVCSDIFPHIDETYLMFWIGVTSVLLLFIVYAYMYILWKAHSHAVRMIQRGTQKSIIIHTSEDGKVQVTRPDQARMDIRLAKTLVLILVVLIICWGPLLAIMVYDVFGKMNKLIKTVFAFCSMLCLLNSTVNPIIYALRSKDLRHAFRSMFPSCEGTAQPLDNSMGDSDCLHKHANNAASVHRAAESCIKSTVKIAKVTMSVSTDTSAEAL
Mu-type opioid receptor, sequence (P35372 whole entry): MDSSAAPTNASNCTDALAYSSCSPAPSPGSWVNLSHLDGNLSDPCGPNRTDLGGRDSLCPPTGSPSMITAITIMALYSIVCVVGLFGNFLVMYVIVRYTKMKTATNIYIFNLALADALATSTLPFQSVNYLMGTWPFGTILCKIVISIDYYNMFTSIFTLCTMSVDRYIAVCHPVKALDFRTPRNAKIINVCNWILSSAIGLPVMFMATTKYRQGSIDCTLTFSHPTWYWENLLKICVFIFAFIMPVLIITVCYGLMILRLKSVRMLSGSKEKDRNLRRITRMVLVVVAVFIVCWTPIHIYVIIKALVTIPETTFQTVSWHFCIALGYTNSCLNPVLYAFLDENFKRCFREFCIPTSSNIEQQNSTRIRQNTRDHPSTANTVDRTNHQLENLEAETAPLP
Delta-type opioid receptor, sequence (P41143 whole entry): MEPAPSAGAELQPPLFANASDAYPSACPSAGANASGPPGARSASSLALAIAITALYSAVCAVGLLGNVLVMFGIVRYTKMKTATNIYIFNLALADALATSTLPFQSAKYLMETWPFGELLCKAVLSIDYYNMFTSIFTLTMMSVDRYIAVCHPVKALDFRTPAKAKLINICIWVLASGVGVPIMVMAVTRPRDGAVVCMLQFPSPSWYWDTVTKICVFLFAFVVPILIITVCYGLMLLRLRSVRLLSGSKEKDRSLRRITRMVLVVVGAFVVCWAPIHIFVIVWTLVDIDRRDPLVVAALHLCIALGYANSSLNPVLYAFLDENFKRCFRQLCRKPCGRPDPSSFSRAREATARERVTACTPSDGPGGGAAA
G-protein coupled receptor 55, sequence (Q9Y2T6 whole entry): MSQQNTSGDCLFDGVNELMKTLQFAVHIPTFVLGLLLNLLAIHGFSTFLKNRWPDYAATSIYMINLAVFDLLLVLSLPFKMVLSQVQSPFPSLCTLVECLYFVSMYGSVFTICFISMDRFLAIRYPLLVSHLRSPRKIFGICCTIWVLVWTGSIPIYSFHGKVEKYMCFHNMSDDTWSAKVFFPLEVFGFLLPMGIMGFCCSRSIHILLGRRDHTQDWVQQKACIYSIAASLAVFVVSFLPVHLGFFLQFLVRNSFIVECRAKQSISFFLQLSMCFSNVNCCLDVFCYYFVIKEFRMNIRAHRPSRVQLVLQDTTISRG

For the compound `COc1cc2c(cc1OC)C(c1cc(Br)ccc1F)N(C(=O)CCl)CC2` (centres undefined), the concentration for a half-maximal effect (EC50) is 6.1 µM (active) in the assay with BJ [1]; 5.02 µM (inconclusive) with BJ [2]; 5.12 µM (active) in [4]; 1.41 µM (active) with BJ [6]; 2.7 µM (inconclusive) with BJ [8]; 3.09 µM (active) in assay [9]. On Protein RecA, the concentration giving a half-maximal response (EC50) was 0.8 µM (active). Further, the CC50 in assay [3] is 4.2 µM (active); in assay [7], 5.64 µM (active). In addition, the AC50 in assay [5] was 4.29 µM (active).
With `COc1cccc(CSc2nnc(-c3ccccn3)n2Cc2cccs2)c1`, the EC50 was > 32 µM (inactive) at Mu-type opioid receptor, 8.72 µM (active) in [10], 12.2 µM (inactive) in assay [11] and > 32 µM (inactive) in assay [12].
For `Cc1ccc(-c2csc(NC(=O)CSc3nnc4cc(C)c5ccccc5n34)n2)cc1`, the IC50 (at Cannabinoid receptor 2 [13]; on Cannabinoid receptor 1 [14]; in assay [17]) was > 32 µM (inactive) each time. Also, the EC50 is > 32 µM (inactive) on Cannabinoid receptor 2 [15], > 32 µM (inactive) on Cannabinoid receptor 1 [16], 11.5 µM (inactive) in assay [18] and > 32 µM (inactive) in [19].
Take `COC(=O)C1=C(CSc2nc3c(cc2C#N)CN(C)CC3)OC(N)=C(C#N)C1c1ccccc1F` (centres undefined): the IC50 in assay [20] was 60.9 µM (inactive); in assay [21] it was > 100 µM (inactive).
Turning to `Cc1ccc(OCC(=O)Nc2cccc(Cl)c2)c([N+](=O)[O-])n1`, in assay [22], the EC50 was > 50 µM (inactive).
